Data as given in patent US5068222A, “Bombesin antagonists with deletion of net-residue at the C-terminus” (Imperial Chemical Industries PLC, priority 1987, dated 1991).
Where a SMILES comes first, the peptide text is derived from it. [ ]: non-standard residue; d: D form. The star is where a group is joined. Cbz = O=C(OCc1ccccc1)*

Tests used:
[1] = system: bombesin-induced hypothermia; details: rat; cited from earlier work
[2] = system: guinea pig pancreatic acini; details: cited from earlier work
[3] = system: mouse Swiss 3T3 fibroblast cells; type: cell-based; details: 3 h
Protocol: (b) An in vitro assay which assesses the ability of a test compound to inhibit the Neuromedin C stimulated mitogenesis of mouse Swiss 3T3 fibroblast cells as determined by the uptake of [^3 H]-thymidine. The test is similar to those described by N. Corps., L. Rees and K. Brown, Biochem. Journal, 1985, 231, 781 and I. Zachary and E. Rozengurt, Proc. Nat. Acad. Sci. U.S.A., 1985, 82, 7616, except that GRP (18-27) (0.2 or 0.4 nM) was used to stimulate growth and the test compounds were dissolved in an assay medium containing 0.1% bovine serum albumin and 0.4% dimethylsulphoxide and […]

[4] = system: bombesin-induced stimulation of the secretion of the enzyme amylase; details: rat, in vivo
Protocol: (c) An in vivo test involving the measurement of the antagonism of the bombesin-induced stimulation of the secretion of the enzyme amylase into the pancreatic duct of the rat by a test compound administered orally, sub-cutaneously or intravenously. Bombesin and the test compound can be administered concomitantly or the test compound can be predosed at any convenient interval, for example 30, 60, 90, 120, 150 or 180 minutes, before bombesin is dosed. Amylase was measured by analysis of the conversion of starch into maltose, on incubation of the starch/amylase mixture at 30° C. for 15 minutes, using a spectrophotometric assay as originally described by P. Bernfield in `Methods in Enzymology` Vol. I, p17 (Editors Colowick and Kaplan, Academic Press, New York, 1955). Bombesin (5 micrograms/kg, intravenously) causes a large, but submaximal, increase of amylase secretion within 30 minutes.

[5] = target: T1, bombesin receptor of mouse Swiss 3T3 fibroblast cells (Mus musculus, UniProt P21729); test: Test (a): in vitro binding assay, displacement of [I125]GRP; details: ambient temperature, 1 hour
T1 construct: the bombesin receptor of mouse Swiss 3T3 fibroblast cells; endogenous in cells; host or cells: mouse Swiss 3T3 fibroblast cells
T1 sequence (P21729 whole entry): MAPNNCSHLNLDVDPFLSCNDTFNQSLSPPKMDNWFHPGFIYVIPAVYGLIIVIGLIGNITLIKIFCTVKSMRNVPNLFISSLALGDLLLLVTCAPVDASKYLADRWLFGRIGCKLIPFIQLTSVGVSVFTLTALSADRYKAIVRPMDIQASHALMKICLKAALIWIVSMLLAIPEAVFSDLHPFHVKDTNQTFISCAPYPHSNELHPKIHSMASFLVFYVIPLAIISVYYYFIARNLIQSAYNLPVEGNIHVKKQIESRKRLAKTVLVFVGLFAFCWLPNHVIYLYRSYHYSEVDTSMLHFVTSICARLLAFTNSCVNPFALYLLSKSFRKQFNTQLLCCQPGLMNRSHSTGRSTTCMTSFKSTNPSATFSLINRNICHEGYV
Protocol: (a) An in vitro binding assay which assesses the ability of a test compound to displace radiolabelled gastrin releasing peptide ([I^125 ]GRP) from the bombesin receptor of mouse Swiss 3T3 fibroblast cells. The test is similar to that described by I. Zachary and E. Rozengurt, Proc. Nat. Acad. Sci. U.S.A., 1985, 82, 7616, except that the cells are incubated at ambient temperature for 1 hour;

Row | IC50 in test (c) [4] | Compound | bombesin-stimulated secretion of amylase [2] | IC50 [3] | also measured
1 |  | [D-Glp^7, D-Ala^11, Ala^14 ]bombesin (7-14) |  |  | antagonism of bombesin-induced hypothermia [1]: partial antagonist
2 |  | [D-Phe^12, Leu^14 ]bombesin | inhibited |  | 
3 | 0.1 mg/kg | COC(=O)[C@H](CC(C)C)NC(=O)[C@H](CCCCNC(=O)OCc1ccccc1)NC(=O)[C@@H](C)NC(=O)[C@@H](NC(=O)[C@H](C)NC(=O)[C@H](Cc1c[nH]c2ccccc12)NC(=O)[C@H](Cc1c[nH]cn1)NC(C)=O)C(C)C [Ac-His-Trp-Ala-Val-D-Ala-Lys(Z)-Leu-OMe] (Ac-HWAV[dA]K(Cbz)L-OMe) |  | 0.1 nM | 
4 |  | [D-Phe^12 ]bombesin | inhibited |  | 
5 | < 2 mg/kg | CNC(=O)[C@H](CC(C)C)NC(=O)[C@H](Cc1c[nH]cn1)NC(=O)[C@@H](C)NC(=O)[C@@H](NC(=O)[C@H](C)NC(=O)[C@H](Cc1c[nH]c2ccccc12)NC(=O)[C@H](Cc1c[nH]cn1)NC(C)=O)C(C)C [Ac-His-Trp-Ala-Val-D-Ala-His-Leu-NHMe] (Ac-HWAV[dA]HL-NHMe) |  | 28 nM | IC50 [5]: 19.5 nM
6 |  | [Tyr^4, D-Phe^12 ]bombesin | inhibited |  | 
